Results published in ChEMBL document CHEMBL5625228, “Design, synthesis, and bioactivity evaluation of novel amide/sulfonamide derivatives as potential anti-inflammatory agents against acute lung injury and ulcerative colitis” (Eur J Med Chem, 2023).
Active and inactive are the calls of the source. No cut-off for these calls is given here.

Tests used:
Mus musculus [1] = experiment: Antiinflammatory activity against DSS-induced acute colitis C57BL/6 mouse model assessed as increase in colon length at 5 mg/kg, po pretreated with DSS for 7 days followed by compound addition for every day for 10 days; format: functional, organism-based; conditions: time 10.0 day
Mus musculus [2] = experiment: Antiinflammatory activity against LPS-induced acute lung injury C57BL/6 mouse model assessed as pulmonary congestion in lung at 20 mg/kg, IG preincubated with compound for 30 mins followed by LPS-induction and measured after 6 hrs by H and E staining based analysis; format: functional, organism-based; conditions: time 390.0 min
Mus musculus [3] = experiment: Antiinflammatory activity against LPS-induced acute lung injury C57BL/6 mouse model assessed as suppression of IL-6 level in BALF at 20 mg/kg, IG preincubated with compound for 30 mins followed by LPS-induction and measured after 6 hrs by ELISA analysis; format: functional, organism-based; conditions: time 390.0 min
[4] = Cmax in Sprague-Dawley rat at 1 mg/kg, iv measured upto 24 hrs by LC-MS analysis; format: ADME, organism-based; conditions: in vivo
Mus musculus [5] = experiment: Antiinflammatory activity against DSS-induced acute colitis C57BL/6 mouse model assessed as reduction in crypt necrosis in colon at 5 mg/kg, po pretreated with DSS for 7 days followed by compound addition for every day for 10 days by H and E staining based analysis; format: functional, organism-based; conditions: time 10.0 day
Mus musculus [6] = experiment: Antiinflammatory activity against LPS-induced acute lung injury C57BL/6 mouse model assessed as decrease in IL-6 mRNA level in lung at 20 mg/kg, IG preincubated with compound for 30 mins followed by LPS-induction and measured after 6 hrs by qPCR analysis; format: functional, organism-based; conditions: time 390.0 min
[7] = AUC (0 to t) in Sprague-Dawley rat at 10 mg/kg, po measured upto 24 hrs by LC-MS analysis; format: ADME, organism-based; conditions: in vivo
J774.A1 [8] = experiment: Antiinflammatory activity against mouse J774.A1 cells assessed as inhibition of LPS-induced IL-6 production pretreated with compound for 30 mins followed by LPS induction and measured after 24 hrs by ELISA analysis; format: functional; conditions: time 1470 min; 24.5 h
[9] = MRT (0 to t) in Sprague-Dawley rat at 10 mg/kg, po measured upto 24 hrs by LC-MS analysis; format: ADME, organism-based; conditions: in vivo
Mus musculus [10] = experiment: Antiinflammatory activity against DSS-induced acute colitis C57BL/6 mouse model assessed as attenuation of white pulp at 5 mg/kg, po pretreated with DSS for 7 days followed by compound addition for every day for 10 days by H and E staining based analysis; format: functional, organism-based; conditions: time 10.0 day
J774.A1 [11] = experiment: Antiinflammatory activity against LPS-induced mouse J774.A1 cells assessed as downregulation of IL-6 mRNA level preincubated with compound for 30 mins followed by LPS-induction and measured after 6 hrs by qPCR analysis; format: functional, cell-based; conditions: time 390.0 min
Mus musculus [12] = experiment: Antiinflammatory activity against LPS-induced acute lung injury C57BL/6 mouse model assessed as suppression of TNF-alpha level in BALF at 20 mg/kg, IG preincubated with compound for 30 mins followed by LPS-induction and measured after 6 hrs by ELISA analysis; format: functional, organism-based; conditions: time 390.0 min
[13] = Apparent volume of distribution in Sprague-Dawley rat at 1 mg/kg, iv measured upto 24 hrs by LC-MS analysis; format: ADME, organism-based; conditions: in vivo, read-out: Vz
Mus musculus [14] = experiment: Antiinflammatory activity against LPS-induced acute lung injury C57BL/6 mouse model assessed as suppression of TNF-alpha level in serum at 20 mg/kg, IG preincubated with compound for 30 mins followed by LPS-induction and measured after 6 hrs by ELISA analysis; format: functional, organism-based; conditions: time 390.0 min
[15] = Oral bioavailability in Sprague-Dawley rat at 10 mg/kg measured upto 24 hrs by LC-MS analysis; format: ADME, organism-based; conditions: in vivo
Mus musculus [16] = experiment: Antiinflammatory activity against LPS-induced acute lung injury C57BL/6 mouse model assessed as inflammatory infiltration in lung at 20 mg/kg, IG preincubated with compound for 30 mins followed by LPS-induction and measured after 6 hrs by H and E staining based analysis; format: functional, organism-based; conditions: time 390.0 min
[17] = MRT (0 to t) in Sprague-Dawley rat at 1 mg/kg, iv measured upto 24 hrs by LC-MS analysis; format: ADME, organism-based; conditions: in vivo
J774.A1 [18] = experiment: Antiinflammatory activity against mouse J774.A1 cells assessed as inhibition of LPS-induced TNF-alpha release preincubated with compound for 30 mins followed by LPS-induction and measured after 24 hrs by ELISA analysis; format: functional, cell-based
Mus musculus [19] = experiment: Antiinflammatory activity against LPS-induced acute lung injury C57BL/6 mouse model assessed as suppression of IL-6 level in serum at 20 mg/kg, IG preincubated with compound for 30 mins followed by LPS-induction and measured after 6 hrs by ELISA analysis; format: functional, organism-based; conditions: time 390.0 min
Mus musculus [20] = experiment: Antiinflammatory activity against LPS-induced acute lung injury C57BL/6 mouse model assessed as reduction in pulmonary edema by measuring lung wet to dry ratio at 20 mg/kg, IG pretreated with compound for 30 mins followed by LPS-induction and measured after 6 hrs; format: functional, organism-based; conditions: time 390.0 min
[21] = Clearance in Sprague-Dawley rat at 1 mg/kg, iv measured upto 24 hrs by LC-MS analysis; format: ADME, organism-based; conditions: in vivo
Mus musculus [22] = experiment: Antiinflammatory activity against LPS-induced acute lung injury C57BL/6 mouse model assessed as lung tissue destruction at 20 mg/kg, IG preincubated with compound for 30 mins followed by LPS-induction and measured after 6 hrs by H and E staining based analysis; format: functional, organism-based; conditions: time 390.0 min
Mus musculus [23] = experiment: Antiinflammatory activity against LPS-induced acute lung injury C57BL/6 mouse model assessed as alveolar septa thickness in lung at 20 mg/kg, IG preincubated with compound for 30 mins followed by LPS-induction and measured after 6 hrs by H and E staining based analysis; format: functional, organism-based; conditions: time 390.0 min
Mus musculus [24] = experiment: Antiinflammatory activity against DSS-induced acute colitis C57BL/6 mouse model assessed as reduction in inflammatory infiltration in colon at 5 mg/kg, po pretreated with DSS for 7 days followed by compound addition for every day for 10 days by H and E staining based analysis; format: functional, organism-based; conditions: time 10.0 day
[25] = AUC (0 to t) in Sprague-Dawley rat at 1 mg/kg, iv measured upto 24 hrs by LC-MS analysis; format: ADME, organism-based; conditions: in vivo
Mus musculus [26] = experiment: Antiinflammatory activity against LPS-induced acute lung injury C57BL/6 mouse model assessed as reduction in protein concentration in BALF at 20 mg/kg, IG preincubated with compound for 30 mins followed by LPS-induction and measured after 6 hrs; format: functional, organism-based; conditions: time 390.0 min
[27] = Clearance in Sprague-Dawley rat at 10 mg/kg, po measured upto 24 hrs by LC-MS analysis; format: ADME, organism-based; conditions: in vivo
[28] = Apparent volume of distribution in Sprague-Dawley rat at 10 mg/kg, po measured upto 24 hrs by LC-MS analysis; format: ADME, organism-based; conditions: in vivo
[29] = Half life in Sprague-Dawley rat at 10 mg/kg, po measured upto 24 hrs by LC-MS analysis; format: ADME, organism-based; conditions: in vivo
[30] = Cmax in Sprague-Dawley rat at 10 mg/kg, po measured upto 24 hrs by LC-MS analysis; format: ADME, organism-based; conditions: in vivo
J774.A1 [31] = experiment: Antiinflammatory activity against LPS-induced mouse J774.A1 cells assessed as downregulation of TNF-alpha mRNA level preincubated with compound for 30 mins followed by LPS-induction and measured after 6 hrs by qPCR analysis; format: functional, cell-based; conditions: time 390.0 min
[32] = AUC (0 to infinity) in Sprague-Dawley rat at 10 mg/kg, po measured upto 24 hrs by LC-MS analysis; format: ADME, organism-based; conditions: in vivo
J774.A1 [33] = experiment: Antiinflammatory activity against mouse J774.A1 cells assessed as inhibition of LPS-induced IL-6 release preincubated with compound for 30 mins followed by LPS-induction and measured after 24 hrs by ELISA analysis; format: functional, cell-based

Question: Which results are given for `O=[N+]([O-])c1ccc(N2CCN(c3ccc(S(=O)(=O)NCc4ccccn4)cc3[N+](=O)[O-])CC2)cc1`?
Answer: Activity (Mus musculus [1]): Active; Activity (Mus musculus [2]): Active; Activity (Mus musculus [3]): Active; Cmax [4]: 1320 ng/mL; Activity (Mus musculus [5]): Active; Activity (Mus musculus [6]): Active; AUC(0-t) at 24 h [7]: 1060 ng·h/mL; inhibition (INH) (J774.A1 [8]): 85.92%; MRT last at 24 h [9]: 7.2 h; Activity (Mus musculus [10]): Active; Activity (J774.A1 [11]): Active; Activity (Mus musculus [12]): Active; Vd [13]: 2.3 L/kg; Activity (Mus musculus [14]): Active; bioavailability [15]: 10.6%; Activity (Mus musculus [16]): Active; MRT last at 24 h [17]: 1.1 h; IC50 (J774.A1 [18]): 4340 nM; Activity (Mus musculus [19]): Active; Activity (Mus musculus [20]): Active; clearance [21]: 15 mL/min/kg; Activity (Mus musculus [22]): Active; Activity (Mus musculus [23]): Active; Activity (Mus musculus [24]): Active; AUC(0-t) at 24 h [25]: 1110 ng·h/mL; Activity (Mus musculus [26]): Active; clearance [27]: 150 mL/min/kg; Vz [28]: 80 L/kg; half-life [29]: 7.1 h; Cmax [30]: 168 ng/mL; Activity (J774.A1 [31]): Active; AUC [32]: 1183.5 ng·h/mL; IC50 (J774.A1 [33]): 610 nM
